Test results reported in PMC5983544, “Muscarinic M5 receptors modulate ethanol seeking in rats” (Neuropsychopharmacology, 2018).

Key:
[1] = test system: ethanol-preferring (iP) rats; assay: Ethanol self-administration after bilateral microinjection into dorsolateral (DL) striatum; assay type: in vivo, rat; conditions: intra-DL striatum, 105 pmol/hemisphere
From the text: (§1) Male iP rats (n = 14) were trained to self-administer 10% (v/v) ethanol via lever presses under FR3 operant conditions for approximately 12 weeks, in the presence of a 1-s light conditioned stimulus (CS+) occurring when the ethanol solution was delivered and an olfactory cue (S+ cue; one drop of vanilla essence, placed directly below the ethanol-paired (active) lever), as previously described, followed by surgery and testing. […] Rats were then given 7 days of ethanol self-administration before receiving the alternate treatment in a counterbalanced manner. For full details refer to Supplementary material.
Microinjections were performed as previously described; for full details see Supplementary material.

rat M2 mAChR = target: T1, rat M2 mAChR (Rattus norvegicus, UniProt P10980); assay: ACh-stimulated [35S]GTPγS binding in CHO-rM2 cell membranes; assay type: biochemical; conditions: rM2, [35S]GTPγS binding
T1 construct: host or cells: FlpIn CHO cells (Invitrogen)
T1 sequence (P10980 1-466): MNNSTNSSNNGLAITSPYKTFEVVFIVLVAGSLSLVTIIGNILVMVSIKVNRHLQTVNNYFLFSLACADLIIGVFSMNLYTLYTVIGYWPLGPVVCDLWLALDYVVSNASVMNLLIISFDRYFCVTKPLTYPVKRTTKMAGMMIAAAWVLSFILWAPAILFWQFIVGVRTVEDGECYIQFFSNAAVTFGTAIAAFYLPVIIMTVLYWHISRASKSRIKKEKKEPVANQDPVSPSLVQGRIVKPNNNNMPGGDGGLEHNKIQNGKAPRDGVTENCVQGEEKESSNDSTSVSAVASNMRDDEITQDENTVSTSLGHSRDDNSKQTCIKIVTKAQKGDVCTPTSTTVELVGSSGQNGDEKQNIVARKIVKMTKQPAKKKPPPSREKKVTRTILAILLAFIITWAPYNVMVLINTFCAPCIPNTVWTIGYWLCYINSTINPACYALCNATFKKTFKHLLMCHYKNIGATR
Experimental: (§2) [^3H]NMS equilibrium binding assays in CHO-rM1 to CHO-rM5 cells were performed as previously described for CHO-hM5 cells. For [^35S]GTPγS binding, CHO-rM2 and CHO-rM4 cell membranes were prepared as described in Supplementary information. Membrane [^35S]GTPγS binding was performed as described in ref [26]., except GDP and [^35S]GTPγS concentrations were 1 μM and 0.3 nM, respectively. [^3H](+)-pentazocine binding was performed as described in ref. [27].

[2] = test system: ethanol-preferring (iP) rats; assay: Locomotor activity; assay type: in vivo, rat; conditions: 60 min
Experimental: Rats (n = 6) were habituated to the locomotor room for at least 3 h.

[3] = test system: ethanol-preferring (iP) rats; assay: Operant sucrose self-administration, oral dosing; assay type: in vivo, rat; conditions: 30 mg/kg p.o. x3
From the text: A separate cohort of rats were trained to self-administer sucrose (0.05–1% w/v). Rats underwent an identical dosing regimen of vehicle or ML375 before testing.

rat M5 mAChR [4] = target: T2, rat M5 mAChR (Rattus norvegicus, UniProt P08911); assay: [3H]NMS equilibrium binding in whole CHO-rM5 cells (interaction with ACh); conditions: whole-cell [3H]NMS binding, read-out: binding affinity pKB (converted)
T2 sequence (P08911 1-531): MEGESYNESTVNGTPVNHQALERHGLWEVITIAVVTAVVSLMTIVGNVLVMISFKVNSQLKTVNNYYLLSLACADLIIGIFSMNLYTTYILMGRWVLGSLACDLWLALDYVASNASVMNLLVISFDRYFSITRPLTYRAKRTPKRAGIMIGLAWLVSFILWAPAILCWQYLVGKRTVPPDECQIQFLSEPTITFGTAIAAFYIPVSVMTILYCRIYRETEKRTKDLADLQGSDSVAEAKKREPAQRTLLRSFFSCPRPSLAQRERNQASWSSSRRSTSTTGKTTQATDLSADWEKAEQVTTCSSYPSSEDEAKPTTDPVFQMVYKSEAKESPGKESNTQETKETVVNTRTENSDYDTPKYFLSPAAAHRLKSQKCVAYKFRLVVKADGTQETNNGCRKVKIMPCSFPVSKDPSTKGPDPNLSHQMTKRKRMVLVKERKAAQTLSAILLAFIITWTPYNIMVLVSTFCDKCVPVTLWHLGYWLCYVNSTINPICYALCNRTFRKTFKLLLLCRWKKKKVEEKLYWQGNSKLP
Experimental: Rat mAChR subtypes (rM1–rM5; Origene) and human cannabinoid 1 receptor (hCB1; ref. [24]) constructs were isogenically integrated into FlpIn CHO cells (Invitrogen) and cells were selected in the presence of […] hygromycin B at 37 °C, 5% CO2, as previously described for the human M1 mAChR [25]. All cells were sub-cultured and seeded as previously described for the CHO-hM5 cells.
as §2

[5] = test system: ethanol-preferring (iP) rats; assay: Operant ethanol self-administration, oral dosing; assay type: in vivo, rat
From the text: as §1

rat M5 mAChR [6] = target: T2, rat M5 mAChR; assay: ACh-stimulated IP accumulation (IP-One) in CHO-rM5 cells; assay type: cell-based
Experimental: The IP-One assay kit (Cisbio) was used for the direct quantitative measurement of inositol phosphate (IP) accumulation in CHO-rM1, CHO-rM3 or CHO-rM5 cells, as described previously. The CHO-hCB1 pERK1/2 assays were performed as described in ref [24].

[7] = test system: ethanol-preferring (iP) rats; assay: Cue-induced reinstatement of ethanol seeking; assay type: in vivo, rat; conditions: 3 × 30 mg/kg p.o.
Experimental: A separate cohort of rats (n = 11) underwent 12 weeks of operant ethanol (10% v/v) self-administration followed by extinction training, where lever presses had no programmed consequences. Extinction occurred in the absence of CS+ and S+ cues. […] Subsequently, rats were tested for cue-induced reinstatement by re-introduction of the ethanol-paired CS+ and S+ cues, but in the absence of reward delivery. Rats were then re-extinguished and submitted to a second reinstatement session with the counterbalanced treatment.

effect on ACh potency (rat M2 mAChR): no significant effects
locomotor activity vs vehicle ([2]; 30 mg/kg p.o., P = 0.53): no difference
locomotor activity vs vehicle ([2]; 56.6 mg/kg p.o., P = 0.016): did reduce locomotor activity
Kb (rat M5 mAChR [4]): 355 nM
latency to first water response vs vehicle ([5]; 30 mg/kg p.o. at 3 h, 11 h and 27 h prior to testing, P = 0.037): extends the latency
latency to first ethanol reward vs vehicle ([5]; 30 mg/kg p.o., P = 0.73): no difference
functional cooperativity between ML375 and ACh (rat M5 mAChR [6]; rM5): high negative cooperativity
Kb (rat M5 mAChR [6]; read-out: functional affinity pKB (converted)): 155 nM
Compound: O=C(c1ccc(F)c(F)c1)N1CCN2C(=O)c3ccccc3[C@@]12c1ccc(Cl)cc1 [ML375, (S)-9b-(4-chlorophenyl)-1-(3,4-difluorobenzoyl)-2,3-dihydro-1H-imidazo[2,1-a]isoi ndol-5(9bH)-one]
responding for ethanol vs vehicle ([1]; P = 0.011): significantly reduced responding for ethanol
responding for water vs vehicle ([1]; P > 0.99): no difference
sucrose responding vs vehicle ([3]; sucrose 0.05–1% w/v, P = 0.96): did not alter sucrose responding
water responding vs vehicle ([3]; sucrose-trained rats, P = 1.0): no difference
ethanol responding vs vehicle ([5]; 30 mg/kg p.o. at 27 h, 11 h and 3 h prior to test, 10% ethanol, FR3, P = 0.0015): significantly reduced ethanol responding
responding for water vs vehicle ([5]; 30 mg/kg p.o. at 27 h, 11 h and 3 h prior to test, P = 0.98): no difference
cue-induced reinstatement of ethanol seeking (active lever) vs vehicle ([7]; P = 0.015): significantly attenuated
responding for the previously water-paired lever vs vehicle ([7]; P > 0.99): no differences
